{"source": "a melting point compilation (Tetko et al.; mined from patent text by program, amines drawn as free bases though some values may be those of a salt)", "data": [{"units": {"melting point": "°C"}, "values": [{"smiles": "O=c1c2c(Cc3ccccc3C(F)(F)F)n[nH]c2c2cccnc2n1-c1cccc(OC(F)(F)F)c1", "melting point": "252 to 255"}, {"smiles": "COc1cc2c(cc1OC)C(=Cc1cc(O)ccc1[N+](=O)[O-])OC2=O", "melting point": 253}, {"smiles": "CCCCN(C(C)=O)c1cccc(-c2ccnc3c(C#N)cnn23)c1", "melting point": "146 to 148"}, {"smiles": "Cc1ccccc1CC(=NC#N)NC(NC(=O)Cc1ccc2ncccc2c1)C(C)(C)C", "note": "(stereo not given)", "melting point": "172 to 173"}, {"smiles": "O=C1NC(C(=O)NCCO[N+](=O)[O-])C(c2ccc(Cl)cc2)S1", "note": "(stereo not given)", "melting point": "125 to 127"}, {"smiles": "COc1ccc(C2Sc3cc(Oc4ccccc4)ccc3N(CCN(C)C)C(=O)C2OC(C)=O)cc1F", "note": "(stereo not given)", "melting point": "167 to 168"}, {"smiles": "Cc1nnc(S)n1-c1ccccc1F", "melting point": "119 to 120"}, {"smiles": "CCc1[nH]n(-c2c(Cl)cc(Cl)cc2Cl)c2nc(Cc3cccnc3)nc(=O)c1-2", "melting point": "257 to 260"}, {"smiles": "COC(=O)C1=C(CCc2ccccc2)NC(CC(=O)NCCO)=C(C(=O)OC)C1c1c(Cl)cccc1Cl", "note": "(stereo not given)", "melting point": "192 to 194"}, {"smiles": "CC1(C)OCc2cc(C(O)c3c[nH]cn3)ccc2O1", "note": "(stereo not given)", "melting point": 96}, {"smiles": "CN1CCN(c2nc(-c3ccccc3)nc3nc(-c4ccncc4)[nH]c23)CC1", "melting point": "333 to 337"}, {"smiles": "CCCc1cc(C(=O)O)n(C)n1", "melting point": "150 to 154"}, {"smiles": "CSc1ccc(-c2nn(Cc3cccnc3)c(=O)cc2-c2ccc(Cl)cc2)cc1", "melting point": 148}, {"smiles": "COC(=O)C1=Cc2cc(-c3ccc4c(c3)OCO4)ccc2SCC1", "melting point": "126 to 129"}, {"smiles": "O=S(=O)(Cl)c1ccccc1CCl", "melting point": "43 to 45"}, {"smiles": "NC(=O)c1sc2ccc(Br)cc2c1-c1ccccc1", "melting point": "201 to 202"}, {"smiles": "CC(c1ccc(F)cc1)n1c(NC2CCN(CCc3ccccc3)CC2)nc2ccccc21", "note": "(stereo not given)", "melting point": 162}, {"smiles": "Cc1cccc(NC(=O)N(C)C)c1", "melting point": "124 to 127"}, {"smiles": "CON1CCC2(CC1)C(O)=C(c1c(C)cc(C)cc1C)C(=O)N2OC1CCCCC1", "melting point": "115 to 118"}, {"smiles": "Cc1cc2c(c(C)c1Br)C(c1ccc(C(C)C)cc1)CS2", "note": "(stereo not given)", "melting point": "98 to 100"}, {"smiles": "O=c1[nH]c2cc(Cl)ccc2c(O)c1-c1cccc(Cl)c1", "melting point": "> 300"}, {"smiles": "O=C(NCc1ccncc1)c1cc(-n2cnn(Cc3ccc(F)cc3)c2=O)n[nH]1", "melting point": "262 to 263"}, {"smiles": "COC(=O)C1=NC2=COc3c(OC)cccc3N2C1C(=O)O", "note": "(stereo not given)", "melting point": "167 to 168"}, {"smiles": "Cc1cccc(NC(=O)NC2N=C(c3ccccc3F)c3ccccc3N(Cc3cc4ccccc4o3)C2=O)c1", "note": "(racemic)", "melting point": "213 to 214"}, {"smiles": "CC(C)OC(=O)N1CCC(c2nc3cc(-c4ccc(S(C)(=O)=O)cc4F)ccc3o2)CC1", "melting point": "96.5 to 101"}, {"smiles": "CC(C)(C)OC(=O)NCc1ccc(N2CC(C(=O)N3CCN(CCC(=O)OCc4ccccc4)CC3)OC2=O)cc1", "note": "(stereo not given)", "melting point": "128 to 130"}, {"smiles": "N#CCc1cc(Cl)nc(N)n1", "melting point": "110 to 115"}, {"smiles": "COc1cccc(-c2cccc(Oc3nc(OC)cc(OC)n3)c2C(=O)O)n1", "melting point": "158 to 160"}, {"smiles": "Oc1ccc(NCCCCCCCBr)cc1", "melting point": "121 to 123"}, {"smiles": "N#CC(C#N)=CNc1ccc(C2=NNC(=O)CC2)cc1", "melting point": "290 to 295"}, {"smiles": "N#Cc1c(N2CCc3ccccc3CC2)nc2n(c1=O)CCCC2", "melting point": "136 to 140"}, {"smiles": "CCCSC(C(N)=O)c1cccc(C(=O)c2ccc(F)cc2)c1N", "note": "(stereo not given)", "melting point": "140 to 142"}, {"smiles": "COCCOc1ccc(/C=C/c2cc(/C=C/c3ccc4cc[nH]c4c3)n[nH]2)c(OC)c1", "melting point": "90 to 96"}, {"smiles": "CNC(=O)CCCC1CCN(Cc2cnc3cc(NC(=O)c4ccc(-c5ccc(F)cc5)cc4)c(C)cc3c2)CC1", "melting point": 223}, {"smiles": "COc1cc(N)ccc1-c1cnc(C)s1", "melting point": "125 to 129"}, {"smiles": "OC(c1ccc(Cl)cc1)(c1ccc(Cl)cc1)c1nccn1Cc1ccccc1", "melting point": "167 to 168"}, {"smiles": "C=CCC(CO)(NC)c1ccc(Cl)c(Cl)c1", "note": "(stereo not given)", "melting point": "78 to 78.5"}, {"smiles": "Nc1nc2ccc(OC(F)(F)C(F)(F)F)cc2s1", "melting point": 156}, {"smiles": "OC[C@@H](O)CCc1ccc2ccccc2c1O", "melting point": "105 to 108"}, {"smiles": "CCOc1nc2cccc(C(=O)O)c2n1Cc1ccc(-c2ccccc2-c2nnn[nH]2)cc1", "melting point": "183 to 185"}, {"smiles": "CS(=O)(=O)c1ccc(-n2nc(C(F)(F)F)cc2-c2ccc(-c3cscn3)c(F)c2)cc1F", "melting point": "156 to 158"}, {"smiles": "CC(C)(C)NCC(O)COc1ccc(-c2nc(-c3ccccc3)c[nH]2)cc1", "note": "(stereo not given)", "melting point": "176 to 178"}, {"smiles": "Nc1nc(NC(=O)c2cccnc2)nc(-c2ccc3ccccc3c2O)n1", "melting point": "301 to 302"}, {"smiles": "Nc1ccc(Oc2c(Cl)cc(C(F)(F)F)cc2Cl)cc1", "melting point": "128 to 130"}, {"smiles": "O=C(Cc1cc(C(F)(F)F)cc(C(F)(F)F)c1)N1CCN(C(=O)CNC2CCN(Cc3ccccc3)CC2)C(c2ccccc2)C1", "note": "(stereo not given)", "melting point": "49 to 52"}, {"smiles": "Nc1cn(C2OC(CO)C(O)C2O)nn1", "note": "(stereo not given)", "melting point": "102 to 104"}, {"smiles": "CCCC(=O)COS(=O)(=O)c1ccc(C)cc1", "melting point": "33 to 35"}, {"smiles": "CCCCCCCCCCCN=C1SC(=CC(=O)O)C(=O)N1CCCCCCCCCCC", "melting point": "67 to 68"}, {"smiles": "COC(=O)CCCc1cc2nc(Cl)ccc2n1S(=O)(=O)c1cc(Cl)ccc1Cl", "melting point": "95 to 105"}, {"smiles": "CC(=O)N(C)C(CCCC(=O)O)C(=O)N(C)c1c(I)cc(I)c(C(=O)O)c1I", "note": "(stereo not given)", "melting point": "194 to 204"}, {"smiles": "CCC12CCC3C4=C(CCC3C1C=CC2=O)CC(OC)=CC4", "note": "(stereo not given)", "melting point": "89 to 91"}, {"smiles": "Cc1nc(N)cc(-n2ccc3ccccc32)n1", "melting point": "176 to 177"}, {"smiles": "CC(C)NC(=O)c1ccc([N+](=O)[O-])cc1", "melting point": "152 to 154"}, {"smiles": "CCCCCCCCCCCCCCCCCCOc1ccc(OCCCOc2ccc(OCc3ccccc3)cc2)c(C(=O)N(CC(=O)O)CC(=O)O)c1", "melting point": "70 to 74"}, {"smiles": "CC(=O)C=Cc1ccc(NS(C)(=O)=O)c(Sc2ccc(F)cc2F)c1", "melting point": "119 to 120"}, {"smiles": "CN(C)C(=O)n1oc(CCl)cc1=O", "melting point": "89 to 90"}, {"smiles": "Cc1oc(-c2ccccc2)nc1CCOc1ccc(C=CC=C2OC(=O)NC2=O)cn1", "melting point": "204 to 205"}, {"smiles": "Cc1cccc(-n2nc(Sc3ccc(Cl)cc3)c(C)c(C#N)c2=O)c1", "melting point": "163 to 165"}, {"smiles": "COc1ccc(N2C(=O)C3=C(SCCS3)C2O)cc1", "note": "(stereo not given)", "melting point": "153 to 154"}, {"smiles": "CN(C)Cc1cc(Oc2ccc3c(C(=O)Nc4cccc(C(F)(F)F)c4)cccc3c2)ncn1", "melting point": "180 to 181"}, {"smiles": "COc1ccc(C2=C(CC(C)N(C)C(C)C)C(=O)NCCC2)cc1", "note": "(stereo not given)", "melting point": "86 to 88"}, {"smiles": "CN(C(=O)CN(C(=O)CNC(=O)Nc1cccc(/C=N/O)c1)c1ccccc1)c1ccccc1", "melting point": 219}, {"smiles": "CCOC(=O)C(Cc1cccc(OC)c1OCc1ccccc1)(NC(C)=O)C(=O)OCC", "melting point": "94 to 96"}, {"smiles": "O=C1CCC(n2cnc(-c3ccc(F)cc3)c2-c2ccnc(Nc3ccccc3)n2)CC1", "melting point": "205 to 207"}, {"smiles": "Fc1ccc(-c2ncn(CCCSc3ccccc3)c2-c2ccncc2)cc1", "melting point": "98 to 99"}, {"smiles": "CCc1nc2c(OCc3ccc(OC)cc3)cccc2[nH]1", "melting point": "73.8 to 77.9"}, {"smiles": "CN(C)Cc1c(Cl)nc(-c2ccccc2)c2ccccc12", "melting point": "75 to 77"}, {"smiles": "CCOC(=O)CC(=O)c1ccc([N+](=O)[O-])c(C)c1", "melting point": "48 to 50"}, {"smiles": "Cc1cc(-c2c(O)c(=O)c2=O)c2c(C)ccc(C(C)C)cc1-2", "melting point": "120 to 123"}, {"smiles": "CC(C)Oc1c(Br)csc1C(=O)Nc1nnn[nH]1", "melting point": "193 to 194"}, {"smiles": "COc1ccc(S(=O)(=O)C2(Cc3ccccc3)SC(=O)N(CC(=O)NO)C2=O)cc1", "note": "(stereo not given)", "melting point": "81 to 85"}, {"smiles": "CN(C(=O)c1ccc(Cn2cnc3ncnc-3c2)cc1)C1CCCCC1", "melting point": "229 to 230"}, {"smiles": "Cc1ccc2c(c1)S(=O)(=O)N=C(NC(C)C)N2", "melting point": "266 to 268"}, {"smiles": "CCCN1Cc2ccccc2C(=O)c2cc(CC(=O)O)ccc21", "melting point": 126}, {"smiles": "COc1cc2[nH]c3cc(OC)c(OC)cc3c2cc1OC", "melting point": "232 to 233"}, {"smiles": "O=C1Nc2cnc(Nc3ccc(N4CCOCC4)cc3)nc2S/C1=C/c1ccc([N+](=O)[O-])cc1", "melting point": "302 to 304"}, {"smiles": "COc1ccc(N2C(=O)C(N3C(=O)c4ccccc4C3=O)C2c2ccc(C(=O)O)cc2)cc1", "note": "(stereo not given)", "melting point": 265}, {"smiles": "N#CC1=C(C2CCCC2)Nc2n[nH]cc2C1c1cccc2nonc12", "note": "(stereo not given)", "melting point": 193}, {"smiles": "COc1cc(-c2ccc(O)cc2)ccc1C=O", "melting point": "159 to 161"}, {"smiles": "O=C(Nc1cccc(C(F)(F)F)c1)Nc1ccc(Oc2ncnc3ccn(CCOCCO)c23)cc1Cl", "melting point": "170 to 174"}, {"smiles": "CCCCCCC(C)(C)c1cc(OCc2ccccc2)c2c(c1)OC(C)(C)CC2=O", "melting point": "52 to 52.5"}, {"smiles": "CC(=O)Nc1cccc2c1CCNC2=O", "melting point": "244 to 246"}, {"smiles": "O=C(NCCCCCCCCCCCNC(=O)c1ccc(OC(F)(F)F)cc1)c1ccc(OC(F)(F)F)cc1", "melting point": 142}, {"smiles": "O=[N+]([O-])c1ccc(CN2CCN(c3ccc(F)cc3)CC2)cc1", "melting point": "139 to 141"}, {"smiles": "C[C@]12CCC3=C4CCC(=O)C=C4CC[C@H]3[C@@H]1CCC21OCCC1O", "note": "(stereo not given in full)", "melting point": 180}, {"smiles": "Cc1cc(-c2nnc3c4ccccc4c(OCc4cncn4C)nn23)no1", "melting point": "236 to 238"}, {"smiles": "CCOc1ccc(-c2nn(C(C)c3oc4ccccc4c(=O)c3-c3cccc(F)c3)c3ncnc(N)c23)cc1F", "note": "(stereo not given)", "melting point": "216 to 218"}, {"smiles": "CC(=O)Oc1cc(OC(C)=O)c2c(c1)Oc1ccccc1C2C#N", "note": "(stereo not given)", "melting point": "160 to 161"}, {"smiles": "CN1C(=O)C=C(c2c[nH]c3ncccc23)C1=O", "melting point": "> 250"}, {"smiles": "CCCc1[nH]cnc1C=O", "melting point": "120 to 124"}, {"smiles": "CCOC(=O)CCC(=O)c1ccc(OCCCCCBr)c(CCC(=O)OCC)c1", "melting point": "40 to 41"}, {"smiles": "O=C(O)Cc1noc(Cc2ccccc2)n1", "melting point": "109 to 112"}, {"smiles": "O=C1CC(c2cccc(-n3ccnn3)c2)=Nc2cc(O)c(C#Cc3ccc(F)cc3)cc2N1", "melting point": 243}, {"smiles": "CC(C)N(CCn1cc(C(=O)NCc2ccc(Cl)cc2)c(=O)c2cc(C#CCO)ccc21)C(C)C", "melting point": "188 to 191"}, {"smiles": "C[C@H]1CCCC(C)(C)[C@@H]1[C@H](O)c1ccc(F)c(C#N)c1", "melting point": "118 to 119"}, {"smiles": "CC(=O)OCc1cc2c(C(O)CN(Cc3ccccc3)C(C)(C)C)ccc(OCc3ccccc3)c2[nH]1", "note": "(stereo not given)", "melting point": "133 to 134"}, {"smiles": "CCOC(=O)c1nc(-c2ccc(Cl)cc2Cl)c(-c2ccc(Br)cc2)s1", "melting point": "129 to 130"}, {"smiles": "CCOC(=O)N(N)C(=O)c1ccccc1O", "melting point": 126}, {"smiles": "CC1(C)Cc2cccc(OC(=O)Cl)c2O1", "melting point": "85 to 87.5"}, {"smiles": "Clc1ccnc2ncnn12", "melting point": 190}]}]}
